This is an account of results in patent US20060263895A1, “Method for monitoring the stereoselectivity and relative rate of organic chemical reactions” (priority 2005, published 2006).

The nature of experiment [1]: Double cuvette-ISES (in situ enzymatic screening) of Co(III)-salen mediated HKR of (±)-propylene oxide. The conditions noted are these: bilayer of pH 8.6 buffer over 7.2 M epoxide in CHCl3, 0.25 mol % catalyst, 15-35 min; + = (S), − = (R). The protocol:
Aqueous reporting layers. containing TBADH/NADP+ (cuvette 1) and HLADH/NAD+ (cuvette 2), respectively, are then added. The increase in absorbance at 340 nm can be followed for several such sets in parallel by UV-vis spectrophotometry. The kinetic data are then used to make the double-cuvette ISES predictions.
A general procedure for double cuvette-ISES to estimate both enantioselectivities and relative rates for an array of catalysts being screened in parallel is presented below. The hydrolytic kinetic resolution (HKR) of (±) propylene oxide was chosen as model reaction.
Typically, quartz cuvettes with one cm light paths and with nominal one mL volumes were used. For each catalyst, a two cuvette screen was performed, with cuvette A containing HLADH, as (S)-propanediol-selective reporting enzyme, and cuvette B containing TBADH, as a (R)-propanediol-selective reporting enzyme. For each cuvette, the final volume was 800 μL (300 μL of organic layer; 500 μL of aqueous layer).
Both cuvettes A and B had the following composition: 150 μL (2.15 mmol) of (±)-propylene oxide (7.2 M in organic layer), 150 μL of CHCl3 and 0.25 mol % Co(III)-salen catalyst. The total organic layer volume was maintained as 300 μL in all catalyst screens.
(i) Cuvette A: 0.35 U HLADH (17.6 μL from a stock solution (0.02U/μL)), 7.2 mM β-NAD+(16.5 μL from a 220 mM stock) and 465.8 μL of 50 mM sodium pyrophosphate buffer, pH 8.8. The final pH was 8.6.
(ii) Cuvette B: 0.35 U TBADH (15.8 μL from a stock solution (0.022U/μL)) of, 2.2 mM β-NADP+ (5 μL from a 220 mM stock) and 479.5 μL of 50 mM sodium pyrophosphate buffer, pH 8.8. The final pH was 8.6. The total volume of the aqueous layer was maintained as 500 μL in both cuvettes in all ISES experiments.
C. Step by Step Protocol: A catalyst stock solution (22 μmol of catalyst in 620 μL CHCl3) was made up in a 1.5 ml microcentrifuge tube, and stored on ice, along with a stock of (±)-propylene oxide, in a separate tube. The organic layers were prepared by briefly vortexing 150 μL (5.4 μmol, 0.25 mol %) of the catalyst stock in CHCl3 with 150 μL (2.15 mmol) of (±)-propylene oxide in iced microcentrifuge tubes. These were loaded into 1 mL quartz cuvettes using precooled (refrigerator), disposable 1 mL syringes. The aqueous layers were then layered on top of the organic layers, by syringe, down the walls of the cuvette.

Experiment [2] is described as follows: [total 1,2-propanediol] in aqueous ISES layer by 1H NMR. Conditions: for [diol] (mM) @ 15 min: aqueous ISES layer, 1H NMR, t = 15 min; for Norm.: normalized to the catalyst derived from salen 3b (rate 1.0). The procedure:
The concentration of 1,2-propanediol in the aqueous layer was estimated under typical ISES conditions using 1H NMR spectroscopy. The bilayer was prepared as usual for double cuvette-ISES (Section V), but for the substitution of D2O for H2O in the buffer, and the elimination of the dehydrogenase enzymes. After 15 min, the aqueous layer (300 μL of 500 μL total) was withdrawn and mixed with a fresh solution of imidazole of known concentration (also 300 μL in D2O), as an internal concentration standard. Accumulation of the 1H NMR spectrum, followed by integration and quantitation, provided an experimental measure of [total diol] in the aqueous reporting layer at t=15 minutes for the catalyst under investigation. The observed diol concentrations for ten catalysts examined in this way are collected in Table S6, below. These have been normalized to the value for the catalyst derived from salen 3b (arbitrarily assigned a rate of 1.0).

The nature of experiment [3]: HKR of (±)-propylene oxide under standard neat 'Jacobsen conditions' (NMR conversion, chiral HPLC ee). Conditions: for NMR conv. (time): 3 h; for NMR conv. (time) / % ee (HPLC): loading 0.25 mol %; for % ee (HPLC): reaction stopped at the time given (mostly 3 h); for % ee (HPLC) / % ee of the 1,2-propanediol product, as observed by chiral HPLC (lower number): + = (S), − = (R); for % ee of the 1,2-propanediol product, as observed by chiral HPLC (lower number): neat propylene oxide, 0.55 equiv. H2O, 0.25 mol % catalyst, 3 h reaction time. The procedure:
Salens in the fully synthetic, 42 member focused library that led to catalysts with appreciable activity, as indicated by double cuvette-ISES, were also evaluated ‘outside of the cuvette,’ under conditions more typically employed in HKR reactions. Specifically, these Co(III)-salen catalysts were evaluated in the HKR of (±)-propylene oxide, under neat conditions, similar to those described by Jacobsen and coworkers. Reactions were arbitrarily stopped after 3 hours, to obtain the enantiopurity of the 1,2-propanediol product at relatively early reaction times, for comparison with ISES predictions.
A typical procedure follows: To the Co(III)-salen catalyst derived from 7e (5.4 mg, 5.4 μmol, 0.25 mol %) and (±)-propylene oxide (125 mg, 2.15 mmol) at 0° C., was added water (21 μL, 1.18 mmol, 0.55 equiv.). The reaction mixture was securely capped, and allowed to warm to room temperature and stirred, most commonly for a total of 3 hours. Percent conversion at 3 hours was evaluated by 1H NMR of an aliquot (cooled to 0° C. for the transfer), in CDCl3. In most of these cases, the conversion was low enough after 3 hours, that the unreacted epoxide (bp 32° C.) was of relatively low ee, and was therefore removed by evaporation under aspirator vacuum. When the conversion was less than 5% by NMR after 3 hours, reactions were continued for longer times.
Upon termination of the reaction, the diol product was isolated by Kugelrohr distillation (˜120° C.-oven temp; 0.1 torr). To determine ee, the isolated diol was derivatized using p-bromobenzoyl imidazole (2.2 equiv.) in THF in the presence of NaH (4 equiv.) at room temperature for 5 min. The bis(p-bromobenzoate) esters obtained following sequential washes with 1 N HCl and saturated sodium bicarbonate, were of sufficient purity to be used directly for chiral HPLC analysis (Chiralcel OD, 99% […]). [drawing 23] [drawing 24] [drawing 25] [drawing 26] [drawing 27]

Experiment [4] addresses T1, alcohol dehydrogenase from Thermoanaerobium brockii (TBADH) (Thermoanaerobacter brockii, UniProt P14941).
T1 construct: purchased
T1 sequence (P14941 1-352): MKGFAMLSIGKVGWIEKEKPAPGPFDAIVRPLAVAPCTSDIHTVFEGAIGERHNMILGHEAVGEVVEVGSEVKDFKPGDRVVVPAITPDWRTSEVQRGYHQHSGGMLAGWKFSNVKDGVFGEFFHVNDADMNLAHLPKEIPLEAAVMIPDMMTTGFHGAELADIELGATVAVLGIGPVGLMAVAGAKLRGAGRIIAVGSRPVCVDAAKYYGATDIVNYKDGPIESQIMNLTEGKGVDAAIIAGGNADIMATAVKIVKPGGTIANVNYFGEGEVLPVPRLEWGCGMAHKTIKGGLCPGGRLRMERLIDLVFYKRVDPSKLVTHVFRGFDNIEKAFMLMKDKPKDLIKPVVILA
The experiment can be described thus: TBADH relative velocity (enantioselectivity) and Michaelis-Menten kinetics with 1,2-propanediol. It counts as biochemical. Conditions: TBADH. The protocol:
2. TBADH: The enantioselectivity of […] was estimated from the ratios of the initial velocities of (R)— vs. (S)-1,2-propanediol at fixed concentrations between 3.0 and 80 mM at 25° C. Each velocity measurement was performed in triplicate. The assay cuvette contained the following: 2.2 mM NADP+ (10 μL from a 220 mM stock), 0.113 U of TBADH, and various concentrations of either (R) or (S)-enantiomer of 1,2-propanediol. In all cases, the final volume was adjusted to 1 mL using 50 mM sodium pyrophosphate buffer, pH 8.8.
(§1) Indeed, this was confirmed by the determination of Km's for each antipode of 1,2-propanediol for each enzyme. For each antipodal diol, the same data as were used to survey dehydrogenase enantioselectivity, as a function of diol concentration, were plotted in Michaelis-Menten fashion, as v0 vs. [S] (FIGS. 3 and 4). For each dehydrogenase, the data curve for (R)-1,2-propanediol is shown by -▪-, and those for the (S)-enantiomer by -●-. In all four cases, the data were processed by […], least squares fitting to a hyperbolic function. The resulting curve fits and best fit hyperbolic equations are presented above.

Experiment [5] has as its target T2, alcohol dehydrogenase from horse liver (HLADH) (Equus caballus, UniProt P00327).
T2 construct: purchased; host or cells: equine liver
Nature of the experiment: HLADH relative velocity (enantioselectivity) and Michaelis-Menten kinetics with 1,2-propanediol. It is filed as biochemical. Conditions: HLADH. The procedure:
1. HLADH: The enantioselectivity of […] was estimated from the ratios of the initial velocities of (R)— vs. (S)-1,2-propanediol at fixed concentrations between 4.0 and 100 mM at 25° C. Each velocity measurement was made in duplicate. The assay cuvette contained the following: 7.2 mM NAD+ (33 μL from a 220 mM stock), 0.049 U of HLADH, and various concentrations of either the (R)— or (S)-enantiomer of 1,2-propanediol. In all cases, the final volume was adjusted to 1 mL using 50 mM sodium pyrophosphate buffer, pH 8.8.
as §1

Each structure is given as a SMILES string.

T2 sequence (P00327 whole entry): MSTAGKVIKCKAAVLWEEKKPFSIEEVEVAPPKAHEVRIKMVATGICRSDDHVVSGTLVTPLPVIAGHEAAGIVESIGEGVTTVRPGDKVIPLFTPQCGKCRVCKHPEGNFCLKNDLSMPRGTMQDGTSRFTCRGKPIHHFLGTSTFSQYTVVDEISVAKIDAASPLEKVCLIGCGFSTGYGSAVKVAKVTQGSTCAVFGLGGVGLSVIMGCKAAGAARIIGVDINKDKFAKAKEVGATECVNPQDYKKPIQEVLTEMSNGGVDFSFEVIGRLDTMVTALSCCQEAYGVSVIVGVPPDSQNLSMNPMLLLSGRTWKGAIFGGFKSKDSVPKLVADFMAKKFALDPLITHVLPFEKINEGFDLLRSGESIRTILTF

Turning to `CC(C)(C)c1cc(C=NC[C@@H](N=Cc2cc(C(C)(C)C)cc(C(C)(C)C)c2O)c2ccccc2)c(O)c(C(C)(C)C)c1` [Salen 2a, N,N′-Bis(3′,5′-di-tert-butylsalicylidene)-(1S)-phenyl-1,2-ethylenediamine], the “% ee of the 1,2-propanediol product, as predicted by double-cuvette ISES (upper number)” value in experiment [1] is −97 % ee. Further, in experiment [2], the “[diol] (mM) @ 15 min” value came out at 27.5 mM and the Norm. stood at 0.29. Further, in experiment [3], the “NMR conv. (time)” value was 17 (3 h) %; the “% ee (HPLC)” value is recorded as −93 (R) % ee; the “% ee of the 1,2-propanediol product, as observed by chiral HPLC (lower number)” value (from here on “% ee … (lower number)”) is listed as −93 % ee.

For the compound `CC(C)(C)c1cccc(C=NC[C@H](Cc2ccccc2)N=Cc2cccc(C(C)(C)C)c2O)c1O` [Salen 3b, N,N′-Bis(3′-tert-butylsalicylidene)-(1S)-benzyl-1,2-ethylenediamine], the “% ee of the 1,2-propanediol product, as predicted by double-cuvette ISES (upper number)” value in experiment [1] is “+70 % ee”. Further, in experiment [2], the “[diol] (mM) @ 15 min” value amounted to 96 mM and the Norm. is recorded as 1.0. Also, in experiment [3], the “% ee (HPLC)” value is recorded as “+57 (S) % ee” and the “% ee … (lower number)” value is listed as “+57 % ee”.

As to `CC(C)(C)c1cccc(C=NC[C@H](Cc2ccc3ccccc3c2)N=Cc2cccc(C(C)(C)C)c2O)c1O` [Salen 5b, N,N′-Bis(3′-tert-butylsalicylidene)-(1S)-(β-naphthylmethyl)-1,2-ethylenediamine], in experiment [1], the “% ee of the 1,2-propanediol product, as predicted by double-cuvette ISES (upper number)” value was “+65 % ee”. For the same compound, in experiment [2], the “[diol] (mM) @ 15 min” value came to 75.5 mM and the Norm. is 0.79. In experiment [3], the “NMR conv. (time)” value was 45 (3 h) %; the “% ee (HPLC)” value is listed as “+68 (S) % ee”; the “% ee … (lower number)” value is on record as “+68 % ee”.

A word on the Km: it is the concentration of substrate that gives half-maximal velocity. Turning to `C[C@H](O)CO` [(S)-1,2-propanediol], the Km in experiment [4] (2.2 mM NADP+, pH 8.8, 25° C.) was determined as 23 ± 4 mM; in experiment [5] (7.2 mM NAD+, pH 8.8, 25° C.), 16 ± 1 mM. The Vmax in experiment [4] (0.113 U) is given as 60±4 mAbs min−1; in experiment [5] (0.049 U), 819±20 mAbs min−1.

`Oc1c(C=NC[C@H](Cc2ccc3ccccc3c2)N=Cc2ccc3ccccc3c2O)ccc2ccccc12` [Salen 5d, N,N′-Bis(1′-hydroxy-2′-naphthylidene)-(1S)-(β-naphthylmethyl)-1,2-ethylenediamine]: the “% ee of the 1,2-propanediol product, as predicted by double-cuvette ISES (upper number)” value in experiment [1] is reported as “+9 % ee”. In experiment [2], the “[diol] (mM) @ 15 min” value is listed as 54 mM and the Norm. stood at 0.56. In addition, in experiment [3], the “NMR conv. (time)” value is listed as 10 (3 h) %; the “% ee (HPLC)” value is recorded as “+11 (S) % ee”; the “% ee … (lower number)” value was “+11 % ee”.

As to `CC(C)(C)c1cccc(C=NC[C@H](Cc2cccc3ccccc23)N=Cc2cccc(C(C)(C)C)c2O)c1O` [Salen 4b, N,N′-Bis(3′-tert-butylsalicylidene)-(1S)-(α-naphthylmethyl)-1,2-ethylenediamine], the “% ee of the 1,2-propanediol product, as predicted by double-cuvette ISES (upper number)” value in experiment [1] is recorded as “+91 % ee”. Besides, in experiment [2], the “[diol] (mM) @ 15 min” value worked out at 98 mM and the Norm. is 1.02. Besides, in experiment [3], the “NMR conv. (time)” value was 50 (3 h) %; the “% ee (HPLC)” value is reported as “+59 (S) % ee”; the “% ee … (lower number)” value is “+59 % ee”.

Turning to `CC(C)(C)c1cc(C=NC[C@H](Cc2ccc3ccccc3c2)N=Cc2cc(C(C)(C)C)cc(C(C)(C)C)c2O)c(O)c(C(C)(C)C)c1` [Salen 5a, N,N′-Bis(3′,5′-di-tert-butylsalicylidene)-(1S)-(β-naphthylmethyl)-1,2-ethylenediamine], the “% ee of the 1,2-propanediol product, as predicted by double-cuvette ISES (upper number)” value in experiment [1] was “+87 % ee”. Also, in experiment [2], the “[diol] (mM) @ 15 min” value was 52.5 mM and the Norm. was 0.55. In experiment [3], the “NMR conv. (time)” value was 36 (3 h) %; the “% ee (HPLC)” value is reported as “+66 (S) % ee”; the “% ee … (lower number)” value is listed as “+66 % ee”.
